Experimental data taken from US6783949B1, “Processes for determining whether a test substance contains lipases or lipase inhibitors” (Aventis Pharma Deutschland GmbH, priority 1999, dated 2004).

Experiments:
Format in all cases: biochemical
[1] = target: T1, lipases, preferably HSL (Rattus norvegicus, UniProt P15304); test: Synthesized NBD-acylglycerides as substrates of lipases
T1 sequence (P15304 1-768 isoform P15304-2): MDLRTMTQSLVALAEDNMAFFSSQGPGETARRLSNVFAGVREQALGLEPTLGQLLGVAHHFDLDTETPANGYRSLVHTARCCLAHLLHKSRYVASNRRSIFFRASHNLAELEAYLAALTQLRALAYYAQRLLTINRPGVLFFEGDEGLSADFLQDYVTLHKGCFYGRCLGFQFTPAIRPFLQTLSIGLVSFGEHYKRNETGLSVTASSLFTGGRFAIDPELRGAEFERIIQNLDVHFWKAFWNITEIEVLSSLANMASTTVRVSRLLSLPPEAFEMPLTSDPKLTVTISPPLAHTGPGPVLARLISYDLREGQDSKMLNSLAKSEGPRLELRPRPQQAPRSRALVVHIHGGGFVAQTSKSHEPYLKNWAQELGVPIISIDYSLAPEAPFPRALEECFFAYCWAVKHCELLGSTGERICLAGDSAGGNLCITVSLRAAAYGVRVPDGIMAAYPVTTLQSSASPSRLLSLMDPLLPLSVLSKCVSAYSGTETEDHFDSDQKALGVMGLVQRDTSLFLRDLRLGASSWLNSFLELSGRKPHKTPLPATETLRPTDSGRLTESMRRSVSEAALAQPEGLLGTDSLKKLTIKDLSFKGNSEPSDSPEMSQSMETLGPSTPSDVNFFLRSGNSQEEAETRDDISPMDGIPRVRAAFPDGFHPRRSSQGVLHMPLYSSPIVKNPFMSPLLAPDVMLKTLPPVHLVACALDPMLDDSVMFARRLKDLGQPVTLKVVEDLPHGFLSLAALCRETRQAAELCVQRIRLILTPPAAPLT

[2] = target: T2, pancreatic lipase (Homo sapiens, UniProt P16233); test: Cleavage of NAG by pancreatic lipase; conditions: for Increase in the absorption at 481 nm: Pancreatic lipase, 60 min, NAG 0.05 mg/ml
T2 sequence (P16233 17-465): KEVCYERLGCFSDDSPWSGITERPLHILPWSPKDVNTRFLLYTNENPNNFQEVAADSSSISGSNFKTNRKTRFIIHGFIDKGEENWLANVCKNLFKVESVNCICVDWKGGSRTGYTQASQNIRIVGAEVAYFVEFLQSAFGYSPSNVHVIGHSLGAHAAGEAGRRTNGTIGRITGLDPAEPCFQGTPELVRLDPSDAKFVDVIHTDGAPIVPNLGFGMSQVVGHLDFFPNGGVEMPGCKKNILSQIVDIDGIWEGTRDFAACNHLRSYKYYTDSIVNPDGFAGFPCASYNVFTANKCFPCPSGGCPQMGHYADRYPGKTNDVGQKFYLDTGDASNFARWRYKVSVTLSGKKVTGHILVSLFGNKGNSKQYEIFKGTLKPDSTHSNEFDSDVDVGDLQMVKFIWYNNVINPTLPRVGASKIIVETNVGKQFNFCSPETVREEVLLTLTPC

[3] = target: T3, LPL from rat adipocytes (Rattus norvegicus, UniProt Q06000); test: Cleavage of NAG by LPL; conditions: for Increase in the absorption at 481 nm: 60 min, NAG 0.05 mg/ml
T3 construct: 75 μg of partially purified LPL from rat adipocytes; from tissue; host or cells: rat adipocytes
T3 sequence (Q06000 28-474): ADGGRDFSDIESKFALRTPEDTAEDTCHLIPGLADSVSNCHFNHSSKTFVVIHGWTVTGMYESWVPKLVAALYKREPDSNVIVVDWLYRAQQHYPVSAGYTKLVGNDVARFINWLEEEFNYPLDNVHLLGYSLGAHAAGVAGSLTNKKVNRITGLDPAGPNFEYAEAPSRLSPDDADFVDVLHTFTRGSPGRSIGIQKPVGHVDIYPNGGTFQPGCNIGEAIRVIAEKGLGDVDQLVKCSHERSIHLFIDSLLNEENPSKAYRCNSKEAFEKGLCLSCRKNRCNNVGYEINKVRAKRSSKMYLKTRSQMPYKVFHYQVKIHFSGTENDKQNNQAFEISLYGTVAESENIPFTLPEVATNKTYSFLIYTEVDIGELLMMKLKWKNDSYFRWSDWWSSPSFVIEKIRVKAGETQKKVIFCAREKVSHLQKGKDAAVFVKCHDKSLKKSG

Q: For `O=C(CCCCCCCCCCCNc1ccc([N+](=O)[O-])c2nonc12)OCC(O)CO` (centres unmarked) [Compound (3)], which “Activity as substrate of lipases” value [1] is on record?
A: Its value is ““best” substrate”.

Q: What about the “Increase in the absorption at 481 nm” value ([2]; enzyme 10 arb. units) of the same compound?
A: Its value is 9 ± 2 arb. units.

Q: And the “Increase in the absorption at 481 nm” value ([2]; enzyme 20 arb. units)?
A: Its value is 14 ± 4 arb. units.

Q: And the “Increase in the absorption at 481 nm” value ([2]; enzyme 50 arb. units)?
A: The value was 39 ± 7 arb. units.

Q: What about the “Increase in the absorption at 481 nm” value ([2]; enzyme 75 arb. units) of the same compound?
A: The value was 64 ± 10 arb. units.

Q: And the “Increase in the absorption at 481 nm” value ([2]; enzyme 100 arb. units)?
A: Its value is 92 ± 14 arb. units.

Q: What about the “Increase in the absorption at 481 nm” value ([2]; enzyme 150 arb. units) of the same compound?
A: Its value is 140 ± 18 arb. units.

Q: And the “Increase in the absorption at 481 nm” value ([2]; enzyme 200 arb. units)?
A: Its value is 188 ± 21 arb. units.

Q: What about the “Increase in the absorption at 481 nm” value ([2]; enzyme 250 arb. units) of the same compound?
A: Its value is 234 ± 30 arb. units.

Q: What about the “Increase in the absorption at 481 nm” value ([2]; enzyme 300 arb. units) of the same compound?
A: Its value is 265 ± 34 arb. units.

Q: And the “Increase in the absorption at 481 nm” value ([2]; enzyme 400 arb. units)?
A: Its value is 286 ± 32 arb. units.

Q: What about the “Activity relative to HSL” value ([2]; pancreatic lipase, conditions optimized for HSL) of the same compound?
A: The value was 1%.

Q: What about the “Activity relative to HSL” value ([3]; conditions optimized for HSL) of the same compound?
A: Its value is roughly 70%.

Q: What about the “Increase in the absorption at 481 nm” value ([3]; enzyme 10 arb. units) of the same compound?
A: The value was 105 ± 14 arb. units.

Q: What about the “Increase in the absorption at 481 nm” value ([3]; enzyme 20 arb. units) of the same compound?
A: Its value is 187 ± 17 arb. units.

Q: And the “Increase in the absorption at 481 nm” value ([3]; enzyme 50 arb. units)?
A: The value was 489 ± 31 arb. units.

Q: What about the “Increase in the absorption at 481 nm” value ([3]; enzyme 75 arb. units) of the same compound?
A: Its value is 773 ± 56 arb. units.

Q: And the “Increase in the absorption at 481 nm” value ([3]; enzyme 100 arb. units)?
A: The value was 948 ± 72 arb. units.

Q: And the “Increase in the absorption at 481 nm” value ([3]; enzyme 150 arb. units)?
A: Its value is 1487 ± 132 arb. units.

Q: And the “Increase in the absorption at 481 nm” value ([3]; enzyme 200 arb. units)?
A: Its value is 1952 ± 173 arb. units.

Q: And the “Increase in the absorption at 481 nm” value ([3]; enzyme 250 arb. units)?
A: Its value is 2638 ± 213 arb. units.

Q: And the “Increase in the absorption at 481 nm” value ([3]; enzyme 300 arb. units)?
A: The value was 2945 ± 250 arb. units.

Q: And the “Increase in the absorption at 481 nm” value ([3]; enzyme 400 arb. units)?
A: The value was 3512 ± 288 arb. units.
